Measured values: patent US11993786B2, “Methods and compositions for generating pacemaker cells” (TAIPEI VETERANS GENERAL HOSPITAL, priority 2017, dated 2024)

Legend:
β-adrenergic receptor = test: Sympathetic stimulation of beating rate with isoproterenol; format: cell-based, rat; settings: 1 μM isoproterenol
Protocol: (§1) Seeded cardiomyocytes in Tyrode's solution were loaded with Ca^2+ indicators (10 μM Fluo-3/AM for cardiomyocytes; Calbiochem, San Diego, CA, USA) and incubated at room temperature for 30 minutes in the dark. Fluorescence imaging was performed with a laser scanning confocal microscope (Olympus IX71, Olympus America). The fluorescence density (F) was normalized against the baseline fluorescence (F0) to determine the transient [Ca^2+]i changes, which had excluded variations in the fluorescence intensity because of different volumes of injected dye. Offline analysis was performed using Olympus IX71 and ImageJ.
Isoproterenol is a non-selective β-adrenergic receptor agonist, which is used for pharmacological sympathetic stimulation to evaluate the physiological sympathetic regulation of sinus node. In this example, the functional regulations of autonomic neurotransmitters in SF-treated cardiomyocytes were investigated using the isoproterenol treatment (1 μM).

HCN4 = biological target: T1, HCN4 (Rattus norvegicus, UniProt Q9JKA7); test: Effect of HCN4 inhibitor on spontaneous beating rate (calcium transient cycling); format: cell-based; settings: 3 μM ivabradine
T1 construct: endogenous in cells; host or cells: NRVMs (primary neonatal rat ventricular cardiomyocytes) on silk fibroin film or fibronectin control
T1 sequence (Q9JKA7 1-1198): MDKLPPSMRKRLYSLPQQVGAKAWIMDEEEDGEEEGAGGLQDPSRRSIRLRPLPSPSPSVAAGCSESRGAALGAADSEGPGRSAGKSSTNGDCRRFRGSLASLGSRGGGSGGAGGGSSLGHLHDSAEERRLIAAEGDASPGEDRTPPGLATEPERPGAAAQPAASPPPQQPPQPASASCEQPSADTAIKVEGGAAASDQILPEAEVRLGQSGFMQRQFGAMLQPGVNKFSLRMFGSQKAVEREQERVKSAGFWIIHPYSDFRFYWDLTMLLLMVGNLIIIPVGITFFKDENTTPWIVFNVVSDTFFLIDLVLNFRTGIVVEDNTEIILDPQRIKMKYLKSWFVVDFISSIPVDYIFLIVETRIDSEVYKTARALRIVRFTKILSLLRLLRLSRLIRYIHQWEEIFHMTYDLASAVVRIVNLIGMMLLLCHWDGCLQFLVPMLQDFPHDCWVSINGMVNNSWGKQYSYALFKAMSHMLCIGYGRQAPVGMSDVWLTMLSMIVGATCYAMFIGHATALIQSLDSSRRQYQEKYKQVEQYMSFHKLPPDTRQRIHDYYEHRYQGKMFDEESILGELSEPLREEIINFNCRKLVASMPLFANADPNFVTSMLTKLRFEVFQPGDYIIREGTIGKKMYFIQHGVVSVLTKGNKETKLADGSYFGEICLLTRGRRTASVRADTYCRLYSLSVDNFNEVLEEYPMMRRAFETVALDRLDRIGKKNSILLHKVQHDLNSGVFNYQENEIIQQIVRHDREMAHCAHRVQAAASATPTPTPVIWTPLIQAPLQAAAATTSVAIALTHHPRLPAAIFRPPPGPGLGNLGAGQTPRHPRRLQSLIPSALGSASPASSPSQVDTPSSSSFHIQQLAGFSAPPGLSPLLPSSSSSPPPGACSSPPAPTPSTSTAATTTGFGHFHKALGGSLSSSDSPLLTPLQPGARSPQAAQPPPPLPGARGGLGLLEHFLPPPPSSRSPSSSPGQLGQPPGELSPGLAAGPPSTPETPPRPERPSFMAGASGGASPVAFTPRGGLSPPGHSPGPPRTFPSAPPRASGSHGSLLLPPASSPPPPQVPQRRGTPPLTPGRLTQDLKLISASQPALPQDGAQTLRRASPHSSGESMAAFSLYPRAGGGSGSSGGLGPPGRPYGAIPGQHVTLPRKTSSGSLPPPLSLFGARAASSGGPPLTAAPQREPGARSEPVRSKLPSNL
Protocol: as §1
The spontaneous beating is tightly regulated by HCN4 channels in native SAN pacemakers. Therefore, in this example, cells from Example 1 were treated with 3 μM ivabradine, a selective HCN4 inhibitor, to evaluate the impact of HCN4 on the function of SF-treated cardiomyocytes.

| suppression of beating rate (cycling rate of spontaneous calcium transient) (HCN4; SF-treated cardiomyocytes, vs baseline, n=15, P=0.002) [%] | beating rate vs baseline (HCN4; control cells, n=32, P=0.24) | Structure (SMILES) | beating rate (β-adrenergic receptor; SF-treated cardiomyocytes, n=10, P=0.001 vs control) [bpm] | increment of beating rate without vs with isoproterenol (β-adrenergic receptor; SF-treated cells, n=10, P=0.02 vs control) [bpm] | beating rate (β-adrenergic receptor; control cells) [bpm] | increment of beating rate without vs with isoproterenol (β-adrenergic receptor; control cells) [bpm] |
| --- | --- | --- | --- | --- | --- | --- |
|  |  | CC(C)NCC(O)c1ccc(O)c(O)c1 (stereo not drawn) [isoproterenol] | 162.4±9.6 | 87.1±12.4 | 87.6±14.7 | 49.2±8.3 |
| 57 | did not differ significantly | COc1cc2c(cc1OC)CC(=O)N(CCCN(C)C[C@H]1Cc3cc(OC)c(OC)cc31)CC2 [ivabradine] |  |  |  |  |
